Results taken from patent publication US6686333B1, “Inhibition of HIV replication using soluble Tat peptide analogs” (priority 1996, dated 2004).

Columns and labels:
[1] = tested on: Tat transactivation of the HIV-1 promoter; experiment: Transfection and CAT assay: Tat transactivation of HIV-1 LTR-CAT reporter in electroporated CEM lymphocytes; assay type: cell-based; conditions: for Tat transactivation (CAT) in presence of peptide: suppression from 95.7, Tat protein 1 μg, peptide 5 μg, HIV-1 LTR-CAT 5 μg, CEM
Method: Initial studies focused on the analysis of a series of Tat peptide analogs, containing various amino acid substitutions, for their ability to inhibit Tat transactivation of the HIV-1 promoter. CEM lymphocytes, grown to early- to mid-log phase, were electroporated with the Tat protein (1 μg), Tat core peptide 36-50 (5 μg) and the HIV-1 LTR-CAT reporter (5 μg).
(§1) Cells were electroporated as described previously (Kashanchi F, et al. (1992), Nucleic Acids Res, 20:4673-4674). CEM CD4^+ lymphocytes (12D7) (as well as U1 and HeLa cells described in subsequent examples) were kept at a density of 0.5 to 0.8×10^6 cells/ml with media added daily. Typically, 5×10^6 cells were electroporated with purified peptides, Tat protein and/or 5 μg of a reporter plasmid. Synthetic Tat peptides were purified by HPLC to 95 percent purity (Peptide Technologies Corporation, Gaithersburg, Md.). All peptides were analyzed for purity on a 4-20 percent gradient SDS/PAGE followed by silver staining. Recombinant Tat protein was purified by reverse phase HPLC and tested for functional activity in an in vitro transcription assay and in vivo electroporation into CEM cells (Kashanchi F, et al. (1992), Nucleic Acids Res, 20:4673-4674; Bohan Calif., et al. (1992) Gene Expr, 2:391-407). Tat peptide, Tat protein, and the reporter HIV LTR-CAT were mixed with cells and electroporated using a cell porater apparatus (Gibco/BRL, Gaithersburg, Md.). Cell mixtures were electroporated at 800 μF, 230 volts, in RPMI 1640 media without fetal calf serum. Following electroporation, cells were plated in 10 ml of complete media and samples collected 48 hours later for either CAT assay, p24 Gag antigen capture assay or northern blot analysis. Samples receiving rTNF-α (R & D System, Minneapolis, MN) after electroporation were collected 48 hours post-treatment for p24 Gag antigen capture assay (ABI, Bethesda, Md.).

cellular GAPDH gene = experiment: Northern blot of U1 cells, cellular RNA; assay type: cell-based; conditions: U1 cells treated with Tat and peptide
Method: (§2) For northern blot analysis, U1 or HLM1 (Tat HIV proviral clone, Sadaie M R, et al. (1994), Virology, 202:513-518) cells were transfected with either Tat protein, or Tat protein in combination with peptides and collected 48 hrs later. Total RNA was extracted using the Trizol reagent (Gibco/BRL). RNA concentration was measured and equivalent amounts of RNA (5 μg) were loaded on a formaldehyde-agarose gel. The RNA was blotted onto nitrocellulose and hybridized with a randomly primed ^32P-labelled HIV-1 proviral genome BH10 (Lofstrand, Inc.), histone H2b, β-Actin or GAPDH probe (Oncor Science, Inc.). Blots were washed, exposed and quantitated using a PhosphorImager (Molecular Dynamics) […].
(§3) Cellular RNAs including actin, histone H2b, and GAPDH, were monitored in cells treated with Tat and peptide analogs. […] In contrast, no change in the expression of the cellular GAPDH gene was observed.

[2] = tested on: HIV-1 virus replication in U1/U937 co-cultivation; experiment: Co-cultivation of transfected U1 cells with U937 monocyte cell line; assay type: cell-based; conditions: seven days of co-cultivation U1:U937 1:5; peptide 2.5 μg with Tat protein
From the text: It was of interest to determine whether the level of virus particles produced in the presence of Tat peptide analog 41/44 was sufficient to initiate a second round of virus replication. This is an important point to consider when designing specific inhibitors for HIV, since detection of p24 or reverse transcriptase in particles is not necessarily an indication of infectious particles. Dimitrov and Martin, Nature, 375:194-195 (1994). To address this question, we utilized co-cultivation assays in which the induced Ul cells were co-cultivated with the parental U937 monocyte cell line.
Transfected U1 cells (5×10^6) were co-cultivated with the U937 cells 48 hrs after transfection. The co-cultivation assay was initially tested using either a 1:1, 1:5, or 1:25 ratio of infected to uninfected cells. A 1:5 co-cultivation was determined to be the optimal ratio in obtaining the highest viral production within a 2 week period. Cells were co-cultivated in a total of 4 mls for a period of 2 weeks. After the fist week, 2 mls of media cells was removed and 2 mls of fresh media added. Both U937 and CEM cells were seeded at a density of 0.5×10^6 cells per culture dish prior to the co-cultivation experiment.
Initially, cells were electroporated with either wild type (2.5 μg) or peptide analog 41/44 (2.5 μg), along with Tat protein. […]

[3] = tested on: TBP/Tat-activated transcription; experiment: Gal4-Tat / CMV-TBP activated minimal HIV-1 promoter CAT assay in CEM cells; assay type: cell-based; conditions: CEM T-cells, Gal4-TATA+/TAR- reporter
Method: It was of interest to determine if the Tat peptide analog targeted the interaction of Tat with TBP in vivo. For these experiments, we used a minimal HIV-1 promoter (−31 to +21) with Gal4 binding sites located upstream of the promoter. CEM cells were transfected with combinations of Gal4-TATA^+/TAR^− reporter plasmid, Gal4-Tat and a CMV-TBP expression plasmid. Southgate CD, et al. (1991), Genes Dev, 5:2496-2507; Horikoshi N, et al. (1995), Mol Cell Biol, 15:227-234. Peptides were added at the time of electroporation. Following electroporation, cells were plated in complete media, harvested at 48 hours and CAT assays performed. The Gal4-TAT^+/TAR^− plasmid contains six Gal4 binding sites, followed by the HIV sequence from −31 to […]. This construct contains no Sp1 sites or a TAR element.
The ability of Gal4-Tat to activate this promoter is dependent upon the presence of exogenously added TBP. […] Xhou Q, et al. (1995), EMBO J, 14:321-328; Huang L M, et al. (1994), EMBO, 13:2886-2896. We next examined if the peptides were capable of downregulating the TBP/Tat-activated transcription by electroporating CEM T-cells with either wild type or peptide 41/44.

[4] = tested on: HIV virus replication in U1 cells; experiment: Tat-induced virus production in latently infected U1 cells, p24 antigen capture assay; assay type: cell-based, HIV-1; conditions: Tat protein 2.5 μg
Method: as §1, with “Samples receiving rTNF-α (R & D System, Minneapolis, MN) after electroporation were collected 48 hours post-treatment for p24 Gag antigen capture assay (ABI, Bethesda, Md.).” left out

HIV-1 viral mRNA = experiment: Northern blot of U1 cells, HIV-1 viral mRNA; assay type: cell-based; conditions: U1 cells treated with Tat and peptide, 48 hrs
Method: as §2, §3

HTLV-1 promoter = experiment: CAT assay with HTLV-1 LTR (pU3R CAT) reporter, basal and Tax1 transactivated; assay type: cell-based; conditions: for basal transcription of the HTLV-1 promoter: decreased from 19
Method: as §1
(§4) It was of interest to determine if the peptides inhibited transcription from other polymerase II promoters. We have tested seven promoters including HTLV-1, CMV, PTHrP, IgH, RAS, RSV, and SIV. Each promoter, cloned upstream of the CAT reporter gene, was cotransfected individually with the Tat peptides under identical conditions. Electroporation was as in Example 1 but reporter genes used were HTLV-1 LTR (pU3R CAT, 5 μg) or pCMV-CAT (5 μg), containing the CMV promoter. […] For example, basal transcription of the HTLV-1 promoter decreased from 19 to 15.6 and 16.4 percent using 1 and 5,μg of the peptide analog 41/44. Similarly, Tat peptide analog 41/44 decreased Tax1 (1 μg) transactivated transcription approximately two-fold (49.2 to 22.8 percent). In other control experiments, transcription from the CMV promoter was decreased from 17.8 to 9.04 and 6.7 percent in the presence of 1 or 5 μg of Tat peptide analog 41/44.

CMV promoter = experiment: CAT assay with pCMV-CAT reporter; assay type: cell-based; conditions: decreased from 17.8
Method: as §1, with “Samples receiving rTNF-α (R & D System, Minneapolis, MN) after electroporation were collected 48 hours post-treatment for p24 Gag antigen capture assay (ABI, Bethesda, Md.).” left out

[5] = tested on: HTLV-1, CMV, PTHrP, IgH, RAS, RSV, and SIV promoters; experiment: CAT assays with other polymerase II promoters; assay type: cell-based; conditions: seven promoters upstream of CAT, cotransfected with Tat peptides
Method: as §4

“V-C-F-T-T-A-A-L-G-I-S-A-G-R-K (SEQ ID NO:9) (VCFTTAALGISAGRK) [Tat 36-50 (41/47)]” was tested, and the “Tat transactivation (CAT) in presence of peptide” value (from here on “Tat transactivation (CAT)”) [1] was 12%.

In the case of “V-C-F-T-T-A-A-L-A-I-S-Y-G-R-K (SEQ ID NO:7) (VCFTTAALSISYGRK) [Tat peptide analog 41/44]”, the “expression of the cellular GAPDH gene” value (cellular GAPDH gene) is reported as “no change”, the “decrease of virus production in co-cultivation” value [2] is reported as 85% and the “inhibition of TBP/Tat-activated transcription” value [3] is reported as “inhibited TBP/Tat-activated transcription”. The “inhibition of virus replication in U1 cells” value ([4]; comparable experiment with 36-72 peptides) was “approximately 75%”, the “inhibition of Tat-induced virus production in U1 cells” value ([4]; peptide 5 μg, in comparison to wild type peptide 5 μg, p24, 48 hours) was “approximately 85%” and the “level of HIV-1 viral mRNA” value (HIV-1 viral mRNA) was “a decrease in the level of HIV-1 viral mRNA was detected”. The “Tat transactivation (CAT)” value [1] was 1.1%, the “basal transcription of the HTLV-1 promoter” value (HTLV-1 promoter; 1 μg peptide) was 15.6% and the “basal transcription of the HTLV-1 promoter” value (HTLV-1 promoter; 5 μg peptide) was 16.4%. The “decrease of Tax1 transactivated transcription” value (HTLV-1 promoter; Tax1 1 μg, 49.2 to 22.8 percent) was “approximately two-fold”, the Tax1 transactivated transcription (HTLV-1 promoter; Tax1 1 μg, decreased from 49.2) was 22.8% and the “transcription from the CMV promoter” value (CMV promoter; 1 μg peptide) was 9.04%. For the same substance, the “transcription from the CMV promoter” value (CMV promoter; 5 μg peptide) was 6.7% and the “inhibition of transcription from other polymerase II promoters” value [5] was “minimal inhibition”.

“V-C-F-T-T-A-A-L-G-I-A-Y-G-R-K (SEQ ID NO:8) (VCFTTAALGIAYGRK) [peptide 41/46]” was tested, and the “Tat transactivation (CAT)” value [1] was 5.5%.

“V-C-F-T-T-K-A-L-G-I-S-Y-G-R-K (SEQ ID NO:2) (VCFTTKALGISYGRK) [Tat 36-50, wild type Tat core peptide, amino acids 36-50, reference compound]” was tested, and the “decrease of virus production in co-cultivation” value [2] was “did not inhibit HIV virus replication” and the “drop in transcription activity” value ([1]; peptide included in the transfection with Tat protein) was “no apparent drop in transcription activity”.
